Values of other authors as cited in patent EP2361606A2, “Oral and tooth care and cleaning agents with ethyl lauroyl arginate” (Henkel AG & Co. KGaA, priority 2010, dated 2011).
Like-named read-outs stand apart in the source and are kept apart here.

[1] = in water, 20°C, bound that defines the group of not soluble / soluble zinc salts
[2] = in water, temperature not given, bound that defines the group of soluble inorganic zinc salts

In the case of Zinkacetat, the Löslichkeit [1] is given as > 100 mg/L.

For Zinkacetat-Dihydrat, the Löslichkeit (20°C) is given as 430 g/I (20°C).

For Zinkbenzoat, the Löslichkeit [1] is given as > 100 mg/L.

For Zinkbromid, the Löslichkeit (25°C) is listed as 820 g/I (25°C) and the Löslichkeit [2] is listed as > 100 mg/L.

In the case of Zinkchlorid, the Löslichkeit (25°C) is given as 4320 g/I (25°C) and the Löslichkeit [2] is given as > 100 mg/L.

For Zinkcitrat, the Löslichkeit [1] is given as < 100 mg/L.

In the case of Zinkformiat, the Löslichkeit [1] is listed as > 100 mg/L.

For Zinkgluconat, the Löslichkeit (20°C) is listed as 100 g/I (20°C) and the Löslichkeit [1] is listed as > 100 mg/L.

For Zinkhydroxycarbonat, the Löslichkeit (result in words, 20°C) is given as “Fast unlöslich (20°C)”.

For Zinkiodid, the Löslichkeit (20°C) is given as 4500 g/I (20°C) and the Löslichkeit [2] is given as > 100 mg/L.

In the case of Zinklactat, the Löslichkeit [1] is given as > 100 mg/L.

For Zinknitrat, the Löslichkeit [2] is given as > 100 mg/L.

For Zinknitrat Hexahydrat, the Löslichkeit (20°C) is listed as 1843 g/I (20°C).

In the case of Zinknitrat-Tetrahydrat, the Löslichkeit (result in words, 20°C) is given as “Leicht löslich (20°C)”.

In the case of Zinkoleat, the Löslichkeit [1] is listed as < 100 mg/L.

In the case of Zinkoxalat, the Löslichkeit [1] is given as < 100 mg/L.

For Zinkoxid, the Löslichkeit [1] is listed as < 100 mg/L and the Löslichkeit (result in words, temperature not given) is listed as “Unlöslich”.

For Zinksalz der p-Toluolsulfonsäure, the Löslichkeit [1] is given as > 100 mg/L.

For Zinkstearat, the Löslichkeit (20°C) is listed as 0,9 mg/I (20°C) and the Löslichkeit [1] is listed as < 100 mg/L.

For Zinksulfat, the Löslichkeit [2] is listed as > 100 mg/L.

For Zinksulfat-Heptahydat, the Löslichkeit (20°C) is given as 960 g/I (20°C).

For Zinksulfat-Monohydrat, the Löslichkeit (20°C) is listed as “∼350 g/I (20°C)”.

For Zinktartrat, the Löslichkeit [1] is listed as < 100 mg/L.

For Zinkvalerat, the Löslichkeit [1] is listed as > 100 mg/L.

For Zinnlaureat, the Löslichkeit [1] is listed as < 100 mg/L.
